Results taken from patent publication US9107411B2, “Indolecarboxamides and benzimidazolecarboxamides as insecticides and acaricides” (BAYER INTELLECTUAL PROPERTY GMBH, priority 2011, dated 2015).
Read-outs that look alike come from different tables or passages of the source.

Columns and labels:
Spodoptera frugiperda = Spodoptera frugiperda test (SPODFR spray treatment); assay type: in vivo; conditions: application rate 100 g/ha; maize leaf discs; after 7 days
Experimental: Spodoptera frugiperda Test (SPODFR Spray Treatment) Solvent: 78.0 parts by weight of acetone • • 1.5 parts by weight of dimethylformamide To produce an appropriate active ingredient formulation, 1 part by weight of active ingredient is mixed with the stated amounts of solvent and emulsifier, and the concentrate is diluted with emulsifier-containing water to the desired concentration. Leaf discs of maize (Zea mays) are sprayed with an active ingredient formulation of the desired concentration and, after drying, populated with caterpillars of the armyworm (Spodoptera frugiperda). After 7 days, the efficacy in % is determined 100% means that all of the caterpillars have been killed; 0% means that none of the caterpillars have been killed.

Tetranychus urticae = assay: Tetranychus test, OP-resistant (TETRUR spray treatment); assay type: in vivo; conditions: bean leaf discs, after 6 days
Experimental: Tetranychus Test, OP-Resistant (TETRUR Spray Treatment)
Solvent: 78.0 parts by weight of acetone • • 1.5 parts by weight of dimethylformamide
Emulgator: 0.5 part by weight of alkylaryl polyglycol ether
To produce an appropriate active ingredient formulation, 1 part by weight of active ingredient is mixed with the stated amounts of solvent and emulsifier, and the concentrate is diluted with emulsifier-containing water to the desired concentration.
Discs of bean leaves (Phaseolus vulgaris) infested by all stages of the red spider mite (Tetranychus urticae) are sprayed with an active ingredient formulation of the desired concentration.
After 6 days, the efficacy in % is determined. 100% means that all of the spider mites have been killed; 0% means that none of the spider mites have been killed.

logP (HPLC-MS) = assay type: physicochemical
Phaedon cochleariae = assay: Phaedon test (PHAECO spray treatment); assay type: in vivo; conditions: application rate 100 g/ha, Chinese cabbage leaf discs, after 7 days
Experimental: Phaedon Test ([…] Spray Treatment) Solvent: 78.0 parts by weight of acetone • • 1.5 parts by weight of dimethylformamide Emulsifier: 0.5 part by weight of alkylaryl polyglycol ether To produce an appropriate active ingredient formulation, 1 part by weight of active ingredient is mixed with the stated amounts of solvent and emulsifier, and the concentrate is diluted with emulsifier-containing water to the desired concentration. Leaf discs of Chinese cabbage (Brassica pekinensis) are sprayed with an active ingredient formulation of the desired concentration and, after drying, populated with larvae of the mustard beetle (Phaedon cochleariae). After 7 days, the efficacy in % is determined. 100% means that all of the beetle larvae have been killed; 0% means that none of the beetle larvae have been killed.

[1] = HPLC, reversed-phase column (C18), acidic range pH 2.7, acetonitrile (0.1% formic acid)/water gradient, 43° C., calibration with unbranched alkan-2-ones
[2] = HPLC, reversed-phase column (C18), 43° C., acidic range pH 2.7, EEC directive 79/831 Annex V.A8, two values = both regioisomers (G = N)

Row | SMILES | efficacy in % (Spodoptera frugiperda) [%] | efficacy in % (Tetranychus urticae; application rate 100 g/ha) [%] | log p (logP (HPLC-MS); [1]) | efficacy in % (Phaedon cochleariae) [%] | efficacy in % (Tetranychus urticae; application rate 500 g/ha) [%] | log p (logP (HPLC-MS); [2]) | chromatographic logP (logP (HPLC-MS); HPLC, reversed-phase column (C18), 43° C., acidic range pH 2.7, EEC directive 79/831 Annex V.A8, two values = both regioisomers (G = N), read-out: log p) | chromatographic logP (logP (HPLC-MS); HPLC-MS) | pest or weed control at 100 g/ha (Phaedon cochleariae; Phaedon cochleariae, foliar, 168 h, read-out: efficacy in %) [%]
1 | CCn1c(C(=O)NC(c2ccc(F)c(C(F)(F)F)c2)C(F)(F)F)cc2cc(C(=O)NC3(C#N)CC3)c(C)cc21 (stereo not shown) [Compound 189] | 100 | 100 | 3.77 | 100 |  |  |  |  | 
2 | C#CCn1c(C(=O)NC(c2cccc(Br)c2)C(F)(F)F)cc2cc(C(=O)NC3(C#N)CC3)c(Cl)cc21 (stereo not shown) [Compound 60] | 100 | 100 | 3.48 | 100 |  |  |  |  | 
3 | CCn1c(C(=O)NC(c2ccc(F)c(C(F)(F)F)c2)C(F)(F)F)cc2cc(C(=O)NC3CCC3)c(C)cc21 (stereo not shown) [Compound 304] | 100 |  |  | 100 | 100 | 4.24 |  |  | 
4 | C#CCn1c(C(=O)NC(c2ccc(F)c(Cl)c2)C(F)(F)F)cc2cc(C(=O)NC3(C#N)CC3)c(Cl)cc21 (stereo not shown) [Compound 64] | 100 | 100 | 3.41 | 100 |  |  |  |  | 
5 | CCn1c(C(=O)NC(c2cccc(Cl)c2)C(F)(F)F)cc2cc(C(=O)NC3(C#N)CC3)c(C)cc21 (stereo not shown) [Compound 185] | 100 | 100 | 3.58 | 100 |  |  |  |  | 
6 | N#CC1(NC(=O)c2cc3cc(C(=O)NC(c4cccc(C(F)(F)F)c4)C(F)(F)F)n(C4CC4)c3cc2Cl)CC1 (stereo not shown) [Compound 302, 6-chloro-N^5-(1-cyanocyclopropyl)-1-cyclopropyl-N^2-{2,2,2-trifluoro-1-[3-(trifluoromethyl)phenyl]ethyl}-1H-indole-2,5-dicarboxamide] | 100 | 100 |  |  |  |  | 3.6 | 3.59 | 100
7 | CCn1c(C(=O)NC(c2cccc(Cl)c2)C(F)(F)F)cc2cc(C(=O)NC3CC3)c(C)cc21 (stereo not shown) [Compound 184] | 100 | 100 | 3.57 | 100 |  |  |  |  | 
8 | N#CC1(NC(=O)c2cc3cc(C(=O)NC(c4cccc(C(F)(F)F)c4)C(F)(F)F)n(CC4CC4)c3cc2Cl)CC1 (stereo not shown) [Compound 272] | 100 | 100 | 4.03 | 100 |  |  |  |  | 
9 | CCOCn1c(C(=O)NC(c2cccc(C(F)(F)F)c2)C(F)(F)F)cc2cc(C(=O)NC3(C#N)CC3)c(Cl)cc21 (stereo not shown) [Compound 287] | 100 | 100 |  | 100 |  | 3.70 |  |  | 
